Assay results from patent US5936065A, “CS-1 peptidomimetics, compositions and methods of using the same” (Cytel Corporation, priority 1995, dated 1999).
Square brackets hold non-standard residues; d marks the D form. Peptide text beside a SMILES is read from it. * marks the point of attachment. PhAc = O=C(Cc1ccccc1)*

Assays:
[1] = test system: New Zealand white rabbits; experiment: Rabbit heterotopic cardiac allograft model; format: in vivo; conditions: for Expression on Coronary Arteries: ICAM-1 / Expression on Coronary Arteries: Macrophages / Expression on Coronary Arteries: T cells / Expression on Coronary Arteries: Total Fibronectin / Expression on Coronary Arteries: VCAM-1 / Expression on Coronary Arteries: MHC Class II: 1 mg/kg s.c., allograft, 7 to 8 days; for Expression on Coronary Arteries: MHC Class II: immunohistochemistry; on Expression on Coronary Arteries: ICAM-1: key: -: negative; ±: minimal; +: little; ++: moderately abundant; +++: very abundant; on Expression on Coronary Arteries: Macrophages: key: -: negative; ±: minimal; +: little; ++: moderately abundant; +++: very abundant; on Expression on Coronary Arteries: T cells: key: -: negative; ±: minimal; +: little; ++: moderately abundant; +++: very abundant; on Expression on Coronary Arteries: Total Fibronectin: key: -: negative; ±: minimal; +: little; ++: moderately abundant; +++: very abundant
Text: New Zealand white rabbit SPF hearts were allografted into the necks of similar rabbits to assay a graft-vs-host immunorejection model and the affect of a contemplated compound on that immunoinflammatory response.
New Zealand white female rabbits (Charles River Lab., Saint Laurent, Quebec), between 3.5 and 4 kg underwent heterotopic cardiac transplant following an experimental protocol previously described [Alonso et al., Am. J. Pathol., 87:415-442 (1977); Clausell et al., Circulation, 89:2768-2779 (1994)]. The animals were unselected to favor an HLA-mismatch, the host rabbits were Pasteurella-free and the donors, outbred animals. Both host and donor rabbits were fed Purina 5321-0.5 percent cholesterol diet (Research Diets Inc., New Brunswick, N.J.), a strategy that has proven useful in accelerating the process of allograft arteriopathy [Alonso et al., Am. J. Pathol., 87:415-442 (1977)]. The diet was commenced four days prior to the transplant and continued in the recipient of the transplant until the completion of the experimental period.
The technique of heterotopic cardiac transplantation has been previously described [Clausell et al., Circulation, 89:2768-2779 (1994)]. Briefly, a vertical incision was performed in the anterior aspect of the neck of the recipient rabbit and the left common carotid artery and the ipsilateral external jugular vein were isolated. The cardiac allograft was placed in the neck by anastomosing the aorta end-to-side to the recipient's carotid artery and the pulmonary end-to-side to the recipient's external jugular vein, following a total period of ischemia for the donor hearts of approximately 30 minutes. Postoperative care was in compliance with the Principles of Laboratory Animal Care formulated by the Canadian National Society for Medical Research.
Beginning the day of the transplant, the animals were randomized and treated with either scrambled compound (control group) at 1 mg/kg s.c. or the inhibitor compound at 1 mg/kg s.c. The doses of the compounds were empirically extrapolated to the in vivo model based on preliminary in vitro studies, of Table 1. No other immunosuppression therapy was administered. The grafts were monitored daily by palpation and maintained for 7 to 8 days, a previously described endpoint that was associated with myocardial rejection (impaired cardiac contractility) and development of the allograft arteriopathy in this model [Clausell et al., Circulation, 89:2768-2779 (1994)]. A total of fourteen animals were studied in the control (n=7) and treated (n=7) groups.
The animals were sacrificed using a lethal dose of euthanol (480 mg i.v.) (MTC Pharmaceutical, Cambridge, ON), host and donor hearts were removed, and the coronary arteries were perfused with saline through the aorta, followed by light fixation by perfusion with 2 percent paraformaldehyde (Sigma, St, Louis, Mo.). […] Different sections of the hearts were either saved in 10 percent formalin (BDH Inc., Toronto, ON) for light microscopy studies or immediately frozen in O.T.C. Compound Tissue Tek (Miles Inc., Elkart, Ind.) for specific immunohistochemistry studies.
Tissue specimens from the donor hearts were stained with hematoxylin:eosin for histological grading of rejection according to a modified Billingham's criteria [Billingham, Hum. Pathol., 10:367-386 (1979)]. The sections were graded by a pathologist without knowledge of whether the donor hearts came from control or inhibitor compound treated animals.
Three different paraffin-embedded tissue sections from host and donor hearts from both control and treated rabbits were stained by the Movat pentachrome method for light microscopy. Morphometric analysis was performed using a Zeiss microscope attached to a computer-generated video analysis system (Perceptics Inc., NuVision software), as described in Clausell et al., Circulation, 89:2768-2779 (1994). […]

asthmatic sheep = experiment: Treatment of asthmatic sheep (Ascaris suum antigen, double blind cross-over); format: in vivo; conditions: for PC400, carbachol dosage required to increase SRL 4-fold: 24 hours after challenge, pre-challenge values about 20-23 BU; for specific lung resistance (SRL) after challenge: nebulized 1 mg/kg twice a day for three days, 0.5 hours prior to and four hours post challenge on day 4, FIG. 7
Protocol: Six asthmatic sheep were treated in a double blind cross-over study. […] This study was carried out generally as described in Abraham et al., J. Clin. Invest., 93:776-787 (1994).
The inhibitor compound used here was Compound ID No. 896.52, N-phenylacetyl-Leu-Asp-Phe-D-Pro-NH2, with a control compound that comprised the previously described compound having the same residues in a scrambled sequence. The vehicle for the nebulized compounds was phosphate-buffered saline. The compounds were administered at a dose of 1 mg/kg each, twice a day for three days prior to challenge, as well as 0.5 hours prior to and four hours post challenge on day 4. Because this was a crossover study, each animal received one or the other treatment, followed by a rest and then the other treatment. Each animal therefore served as its own control.
Post challenge airway responsiveness was also assayed. Here, specific lung resistance, SRL, returned to baseline values 24 hours after challenge, however, the sheep were hyperresponsive to inhaled carbachol at that time.

SMILES | Expression on Coronary Arteries: ICAM-1 [1] | Expression on Coronary Arteries: Macrophages [1] | Expression on Coronary Arteries: T cells [1] | Expression on Coronary Arteries: Total Fibronectin [1] | Expression on Coronary Arteries: VCAM-1 [1] | Expression on Coronary Arteries: MHC Class II [1] | Baseline (rabbit own host heart) of incidence of intimal thickening [1] | Baseline (rabbit own host heart) of severity of intimal thickening [1] | PC400, carbachol dosage required to increase SRL 4-fold (asthmatic sheep) | specific lung resistance (SRL) after challenge (asthmatic sheep)
CC(C)C[C@H](NC(=O)Cc1ccccc1)C(=O)N[C@@H](CC(=O)O)C(=O)N[C@@H](Cc1ccccc1)C(=O)N1CCC[C@@H]1C(N)=O [896.52, N-phenylacetyl-Leu-Asp-Phe-D-Pro-NH2] (PhAc-LDF[dP]-NH2) | ± | ± | ± | ± | ± | ± | 12% | 12% | about 27 BU | less of a change from baseline specific lung resistance
CC(C)C[C@H](NC(=O)[C@H](CC(=O)O)NC(=O)Cc1ccccc1)C(=O)N[C@@H](Cc1ccccc1)C(=O)N1CCC[C@@H]1C(N)=O [N-phenylacetyl-Asp-Leu-Phe-D-Pro-NH2, reference compound] (PhAc-DLF[dP]-NH2) | + | + | ++ | ++ | + | ++ | 1% | 12% | about 12 BU | had an increase in that pulmonary function
